From article PMC5122774, “Cloning of Glycerophosphocholine Acyltransferase (GPCAT) from Fungi and Plants” (The Journal of Biological Chemistry, 2016)

B1: ScGPCAT (Gpc1p) (Saccharomyces cerevisiae S288C) (protein)
chain: MYKLDNNDIDDETNNSVSLTSLLEFLDPIASKVVSKYYHGSHLSKAEQKLRNFEGFRRRKPHHEHDSHHPHHLNRSRSFLQLEDFKVRALQRIRNLDKPLDSIFFKNSSRLEKAFYPFTLFNIFFIGFLMGRFPEWFHVYYTILFFVLMPIRFYTYYKTKNHYFLADFCYFVNMLCLLFIWIFPYSYSLFQSCFAFTFGTLCFAVITWRNSLVIHSIDKTTSCFIHIIPPCVMYVIYHGLPLEYKIERFPGAIIQSELDIKKNILWTSLYYLVWQSLYHYFITLKKSSKIKSGERMTSFEYLTTHQFKNFWAVKLRSPWPMIIYTLSQYFYQLFTMLLCGIWIRYKLAAALFLTIVFLWASHNGATYYIDHYGKNFEKEVDRLRLEVENLQQKLQPDSDAVISDASVNDKDYLNVNRDEDFDDSSSVSSKSD
notes: full-length, 52 kDa, eight predicted TM helices; pYES-DEST52 (GAL1 promoter) in yeast ale1Δ gpc1Δ, microsomal membranes

Tests used:
[1] = biological target: T1, RcGPCAT (Ricinus communis, UniProt B9RK42); test: radiometric acyltransferase assay, yeast microsomes; format: biochemical; conditions: [14C]GPC 4 mM; pH 7.2 phosphate, 1% BSA, 30 °C
T1 construct: gene GPC1
T1 sequence (B9RK42 whole entry, looked up): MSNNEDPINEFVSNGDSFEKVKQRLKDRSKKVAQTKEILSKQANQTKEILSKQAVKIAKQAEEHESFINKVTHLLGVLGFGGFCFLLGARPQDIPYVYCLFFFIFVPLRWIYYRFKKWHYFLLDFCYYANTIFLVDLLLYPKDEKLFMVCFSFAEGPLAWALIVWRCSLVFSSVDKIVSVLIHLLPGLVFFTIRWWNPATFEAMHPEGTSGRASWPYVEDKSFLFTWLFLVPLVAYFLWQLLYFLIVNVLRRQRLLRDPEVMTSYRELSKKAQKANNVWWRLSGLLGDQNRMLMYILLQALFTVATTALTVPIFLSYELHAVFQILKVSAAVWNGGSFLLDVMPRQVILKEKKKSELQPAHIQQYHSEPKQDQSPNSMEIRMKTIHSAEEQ

[2] = substrate: C[N+](C)(C)CCOP(=O)([O-])OC[C@H](O)CO; test: as above; format: biochemical, Saccharomyces cerevisiae; conditions: 18:1-CoA as acyl donor, pH 7.2 phosphate, 1% BSA, 30 °C, labelled compound

| Molecule | radiometric acyltransferase assay, yeast microsomes [1] | Km [2] [µM] |
| --- | --- | --- |
| CCCCCC[C@@H](O)C/C=C\CCCCCCCC(=O)SCCNC(=O)CCNC(=O)[C@H](O)C(C)(C)COP(=O)(O)OP(=O)(O)OC[C@H]1O[C@@H](n2cnc3c(N)ncnc32)[C@H](O)[C@@H]1OP(=O)(O)O [ricinoleoyl-CoA] | the castor GPCAT accepted all of the acyl-CoAs tested, including ricinoleoyl-CoA |  |
| B1 |  | 450 |
